In US20090069370A1, “AZACYCLYLISOQUINOLINONE AND ISOINDOLINONE DERIVATIVES AS HISTAMINE-3 ANTAGONISTS” (Wyeth, priority 2007, published 2009):
Where a name gives a salt, the structure may show the parent alone.

Compound | melting point [°C]
C[C@H]1CCCN1C(=O)c1ccc(-c2ccc3c(c2)CCN([C@@H]2CCN(C4CCC4)C2)C3=O)c(F)c1 (as salt: hydrochloride) [Example 73, 2-[(3R)-1-cyclobutylpyrrolidin-3-yl]-6-(2-fluoro-4-{[(2S)-2-methylpyrrolidin-1-yl]carbonyl}phenyl)-3,4-dihydroisoquinolin-1(2H)-one] | 212 to 213
CNC(=O)c1ccc(-c2ccc3c(c2)CCN([C@@H]2CCN(C(C)C)C2)C3=O)c(F)c1 (as salt: hydrochloride) [Example 85, 3-fluoro-4-{2-[(3R)-1-isopropylpyrrolidin-3-yl]-1-oxo-1,2,3,4-tetrahydroisoquinolin-6-yl}-N-methylbenzamide] | 245 to 247
CN1CC[C@@H](N2CCc3cc(-c4ccc(C(=O)N5CCCC5)cc4)ccc3C2=O)C1 (as salt: hydrochloride) [Example 55, 2-[(3R)-1-methylpyrrolidin-3-yl]-6-[4-(pyrrolidin-1-ylcarbonyl)phenyl]-3,4-dihydroisoquinolin-1(2H)-one] | > 230
CNC(=O)c1ccc(-c2ccc3c(c2)CN([C@@H]2CCN(C4CCC4)C2)C3=O)cc1 (as salt: hydrochloride) [Example 91, (R)-4-(2-(1-cyclobutylpyrrolidin-3-yl)-1-oxoisoindolin-5-yl)-N-methylbenzamide hydrochloride] | 207 to 208
CNC(=O)c1ccc(-c2ccc3c(c2)CCN([C@@H]2CCN(C4CCCC4)C2)C3=O)cc1 (as salt: hydrochloride) [Example 41, 4-{2-[(3R)-1-cyclopentylpyrrolidin-3-yl]-1-oxo-1,2,3,4-tetrahydroisoquinolin-6-yl}-N-methylbenzamide] | > 240
CNC(=O)c1ccc(COc2ccc3c(c2)CCN(C2CCN(C4CCC4)CC2)C3=O)cc1 (as salt: hydrochloride) [Example 16, 4-({[2-(1-Cyclobutylpiperidin-4-yl)-1-oxo-1,2,3,4-tetrahydroisoquinolin-6-yl]oxy}methyl)-N-methylbenzamide] | 302 to 303
NC(=O)c1ccc(Oc2ccc3c(c2)CCN(C2CCN(C4CCC4)CC2)C3=O)cc1 (as salt: hydrochloride) [Example 3, 4-{[2-(1-cyclobutylpiperidin-4-yl)-1-oxo-1,2,3,4-tetrahydroiso-quinolin-6-yl]oxy}benzamide Hydrochloride] | 309 to 310
CNC(=O)c1ccc(-c2ccc3c(c2)CCN([C@@H]2CCN(C4CCC4)C2)C3=O)cc1 (as salt: hydrochloride) [Example 44, 4-{2-[(3R)-1-cyclobutylpyrrolidin-3-yl]-1-oxo-1,2,3,4-tetrahydroisoquinolin-6-yl}-N-methylbenzamide] | 263 to 265
O=C(c1ccc(-c2ccc3c(c2)CCN([C@@H]2CCN(C4CCC4)C2)C3=O)c(F)c1)N1CCCC1 (as salt: hydrochloride) [Example 79, 2-[(3R)-1-cyclobutylpyrrolidin-3-yl]-6-[2-fluoro-4-(pyrrolidin-1-ylcarbonyl)phenyl]-3,4-dihydroisoquinolin-1(2H)-one] | 211 to 212
O=C(c1ccc(-c2ccc3c(c2)CCN(C2CCN(C4CCCC4)CC2)C3=O)cc1)N1CCCC1 (as salt: hydrochloride) [Example 66, 2-(1-cyclopentylpiperidin-4-yl)-6-[4-(pyrrolidin-1-ylcarbonyl)phenyl]-3,4-dihydroisoquinolin-1(2H)-one] | > 300
CNC(=O)c1ccc(Oc2ccc3c(c2)CCN([C@@H]2CCN(C4CCC4)C2)C3=O)cc1 (as salt: hydrochloride) [Example 33, 4-({2-[(3R)-1-cyclobutylpyrrolidin-3-yl]-1-oxo-1,2,3,4-tetrahydroisoquinolin-6-yl}oxy)-N-methylbenzamide] | 206 to 208
O=C(c1ccc(-c2ccc3c(c2)CCN([C@@H]2CCN(CC4CCCC4)C2)C3=O)cc1)N1CCCC1 (as salt: hydrochloride) [Example 59, 2-[(3R)-1-(cyclopentylmethyl)pyrrolidin-3-yl]-6-[4-(pyrrolidin-1-ylcarbonyl)phenyl]-3,4-dihydroisoquinolin-1(2H)-one] | 288 to 290
O=C(NC1CCC1)c1ccc(Oc2ccc3c(c2)CCN(C2CCN(C4CCC4)CC2)C3=O)cc1 (as salt: hydrochloride) [Example 8, N-Cyclobutyl-4-{[2-(1-cyclobutylpiperidin-4-yl)-1-oxo-1,2,3,4-tetrahydroisoquinolin-6-yl]oxy}benzamide] | > 300
CN(C)C(=O)c1ccc(-c2ccc3c(c2)CCN([C@@H]2CCN(C4CCC4)C2)C3=O)c(F)c1 (as salt: hydrochloride) [Example 78, 4-{2-[(3R)-1-cyclobutylpyrrolidin-3-yl]-1-oxo-1,2,3,4-tetrahydroisoquinolin-6-yl}-3-fluoro-N,N-dimethylbenzamide] | 209 to 210
O=C(NC1CCC1)c1ccc(-c2ccc3c(c2)CCN([C@@H]2CCN(C4CCC4)C2)C3=O)c(F)c1 (as salt: hydrochloride) [Example 74, N-cyclobutyl-4-{2-[(3R)-1-cyclobutylpyrrolidin-3-yl]-1-oxo-1,2,3,4-tetrahydroisoquinolin-6-yl}-3-fluorobenzamide] | > 230
O=C1c2ccc(-c3ccccc3)cc2CCN1[C@@H]1CCN(C2CCC2)C1 (as salt: hydrochloride) [Example 50, 2-[(3R)-1-cyclobutylpyrrolidin-3-yl]-6-phenyl-3,4-dihydroisoquinolin-1(2H)-one] | > 255
CN(C)C(=O)c1ccc(-c2ccc3c(c2)CCN([C@@H]2CCN(C4CCC4)C2)C3=O)cc1 (as salt: hydrochloride) [Example 46, 4-{2-[(3R)-1-cyclobutylpyrrolidin-3-yl]-1-oxo-1,2,3,4-tetrahydroisoquinolin-6-yl}-N,N-dimethylbenzamide] | 211 to 212

The remaining lines, values ahead:

melting point [°C] | Compound
269 to 270 | COC(=O)c1ccc(Oc2ccc3c(c2)CCN(C2CCN(C4CCC4)CC2)C3=O)cc1 (as salt: hydrochloride) [Example 1, methyl 4-{[2-(1-Cyclobutylpiperidin-4-yl)-1-oxo-1,2,3,4-tetrahydroisoquinolin-6-yl]oxy}benzoate]
254 to 256 | O=C(c1ccc(-c2ccc3c(c2)CCN([C@@H]2CCN(Cc4ccco4)C2)C3=O)cc1)N1CCCC1 (as salt: hydrochloride) [Example 61, 2-[(3R)-1-(furan-2-ylmethyl)pyrrolidin-3-yl]-6-[4-(pyrrolidin-1-ylcarbonyl)phenyl]-3,4-dihydroisoquinolin-1(2H)-one]
> 200 | O=C(c1ccc(-c2ccc3c(c2)CCN([C@@H]2CCN(C4CCCC4)C2)C3=O)cc1)N1CCCC1 (as salt: hydrochloride) [Example 43, 2-[(3R)-1-cyclopentylpyrrolidin-3-yl]-6-[4-(pyrrolidin-1-ylcarbonyl)phenyl]-3,4-dihydroisoquinolin-1(2H)-one]
262 to 264 | CN(C)C(=O)c1ccc(Oc2ccc3c(c2)CCN(C2CCN(C4CCC4)CC2)C3=O)cc1 (as salt: hydrochloride) [Example 10, 4-{[2-(1-Cyclobutylpiperidin-4-yl)-1-oxo-1,2,3,4-tetrahydroisoquinolin-6-yl]oxy}-N,N-dimethylbenzamide]
198 to 200 | O=C(c1ccc(-c2ccc3c(c2)CCN([C@@H]2CCN(C4CCC4)C2)C3=O)cc1Cl)N1CCCC1 (as salt: hydrochloride) [Example 49, 6-[3-chloro-4-(pyrrolidin-1-ylcarbonyl)phenyl]-2-[(3R)-1-cyclobutylpyrrolidin-3-yl]-3,4-dihydroisoquinolin-1(2H)-one]
322 to 323 | CN1CCC(N2Cc3cc(-c4ccc(C#N)cc4)ccc3C2=O)CC1 (as salt: hydrochloride) [Example 23]
> 200 | O=C(NC1CC1)c1ccc(-c2ccc3c(c2)CCN([C@@H]2CCN(C4CCC4)C2)C3=O)c(F)c1 (as salt: hydrochloride) [Example 81, 4-{2-[(3R)-1-cyclobutylpyrrolidin-3-yl]-1-oxo-1,2,3,4-tetrahydroisoquinolin-6-yl}-N-cyclopropyl-3-fluorobenzamide]
307 to 309 | CCNC(=O)c1ccc(COc2ccc3c(c2)CCN(C2CCN(C4CCC4)CC2)C3=O)cc1 (as salt: hydrochloride) [Example 17, 4-({[2-(1-Cyclobutylpiperidin-4-yl)-1-oxo-1,2,3,4-tetrahydroisoquinolin-6-yl]oxy}methyl)-N-ethylbenzamide]
292 to 293 | NC(=O)c1ccc(COc2ccc3c(c2)CCN(C2CCN(C4CCC4)CC2)C3=O)cc1 (as salt: hydrochloride) [Example 15, 4-({[2-(1-cyclobutylpiperidin-4-yl)-1-oxo-1,2,3,4-tetrahydroiso-quinolin-6-yl]oxy}methyl)benzamide acid hydrochloride]
> 300 | N#Cc1ccc(-c2ccc3c(c2)CN(C2CCN(CC4CCCC4)CC2)C3=O)cc1 (as salt: hydrochloride) [Example 27, 4-{2-[1-(Cyclopentylmethyl)piperidin-4-yl]-1-oxo-2,3-dihydro-1H-isoindol-5-yl}benzonitrile]
289 to 291 | O=C(NC1CCCC1)c1ccc(COc2ccc3c(c2)CCN(C2CCN(C4CCC4)CC2)C3=O)cc1 (as salt: hydrochloride) [Example 21, 4-({[2-(1-Cyclobutylpiperidin-4-yl)-1-oxo-1,2,3,4-tetrahydroisoquinolin-6-yl]oxy}methyl)-N-cyclopentylbenzamide]
235 to 236 | O=C(c1ccc(-c2ccc3c(c2)CCN([C@@H]2CCN(C4CCC4)C2)C3=O)cc1F)N1CCCC1 (as salt: hydrochloride) [Example 48, 2-[(3R)-1-cyclobutylpyrrolidin-3-yl]-6-[3-fluoro-4-(pyrrolidin-1-ylcarbonyl)phenyl]-3,4-dihydroisoquinolin-1(2H)-one]
307 to 309 | O=C(NC1CC1)c1ccc(Oc2ccc3c(c2)CCN(C2CCN(C4CCC4)CC2)C3=O)cc1 (as salt: hydrochloride) [Example 7, 4-{[2-(1-Cyclobutylpiperidin-4-yl)-1-oxo-1,2,3,4-tetrahydroisoquinolin-6-yl]oxy}-N-cyclopropylbenzamide]
